Positions count from the first letter of the chain named. Like-named read-outs stand apart in the source and are kept apart here.
What was measured:
IDH2 R140Q = target: T1, IDH2 R140Q (Homo sapiens, UniProt P48735, R140Q); assay: Inhibition of 2-HG production in IDH2 mutant U-87 MG cells; assay type: cell-based
T1 construct: expressed in transfected cells; host or cells: U-87 MG
T1 sequence (P48735 40-452 R140Q): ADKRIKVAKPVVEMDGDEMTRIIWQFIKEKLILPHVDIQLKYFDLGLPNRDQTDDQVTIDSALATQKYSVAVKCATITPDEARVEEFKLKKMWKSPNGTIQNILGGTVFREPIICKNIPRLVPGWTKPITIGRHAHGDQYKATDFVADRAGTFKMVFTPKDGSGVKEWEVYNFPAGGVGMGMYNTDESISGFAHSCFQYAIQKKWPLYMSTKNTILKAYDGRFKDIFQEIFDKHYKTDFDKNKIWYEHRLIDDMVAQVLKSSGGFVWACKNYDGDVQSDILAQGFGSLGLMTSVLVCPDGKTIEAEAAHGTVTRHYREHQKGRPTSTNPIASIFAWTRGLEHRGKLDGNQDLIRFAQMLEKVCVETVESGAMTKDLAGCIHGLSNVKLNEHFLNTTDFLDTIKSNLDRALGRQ

IDH2 R172K_Q316E cis = target: T2, IDH2 R172K_Q316E cis (Homo sapiens, UniProt P48735, Q316E/R172K); assay: as above; assay type: cell-based; conditions: 16 hours incubation, 50K cells/well, 100 μl media/well, read-out: Relative IC50 (nM) Mean, inhibition of 2-HG production
T2 construct: expressed in transfected cells; host or cells: U-87 MG
T2 sequence (P48735 40-452 R172K/Q316E): T1 sequence (P48735 40-452 R140Q) with Q101R, R133K, Q277E

IC50 (IDH2 R140Q; 16 hours incubation, 50K cells/well, 100 μl media/well, read-out: Relative IC50 (nM) Mean, inhibition of 2-HG production): 223 nM
IC50 (IDH2 R140Q; 72 hours incubation, 12.5K cells/well, 150 μl media/well, read-out: IC50, inhibition of 2-HG production): 28.4 nM
IC50 (IDH2 R172K_Q316E cis): 76 nM
SMILES: C=CC(=O)N1CCN([C@@H](CC2CC2)c2ccc([C@H](C)Nc3ncc4c(n3)N(CC)C(=O)OC4)cc2)CC1 [Compound A, 7-[[(1S)-1-[4-[(1S)-2-cyclopropyl-1-(4-prop-2-enoylpiperazin-1-yl)ethyl]phenyl]ethyl]amino]-1-ethyl-4H-pyrimido[4,5-d][1,3]oxazin-2-one]
